Experimental data published in PMC9756341 (Journal of the American Chemical Society, 2022).
The star is where a group is joined. ACC = NC(=O)Cc1cc(=O)oc2cc(N*)ccc12; AMC = Cc1cc(=O)oc2cc(N*)ccc12; Boc = CC(C)(C)OC(=O)*

Tests used:
KLK7 [1] = target: T1, KLK7 (Homo sapiens, UniProt P49862); experiment: Enzyme kinetics to calculate KM, KLK7; format: biochemical; conditions: fluorogenic substrate, KLK7 34 nM, 2% DMSO, room temperature, 30 min, Michaelis-Menten model, triplicates
T1 construct: gift from the group of Judith Clements (QUT)
T1 sequence (P49862 30-253): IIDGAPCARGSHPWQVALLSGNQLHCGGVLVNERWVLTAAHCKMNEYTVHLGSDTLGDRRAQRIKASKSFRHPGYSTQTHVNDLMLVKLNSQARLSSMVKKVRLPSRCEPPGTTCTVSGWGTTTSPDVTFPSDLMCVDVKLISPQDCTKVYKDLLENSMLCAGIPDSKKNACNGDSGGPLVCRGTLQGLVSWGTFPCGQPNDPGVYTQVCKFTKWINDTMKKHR
Experimental: (§1) Reagents were obtained from VWR, Sigma Aldrich, Sartorius, Fluorochem, AGTC, Novabiochem, TCI, Alfa Aesar, Iris Biotech, Thermofisher and Bachem. […]
(§2) (Code 7449-SE) and KLK8 (Code 2025-SE) were obtained from BioTechne. KLK6 was obtained from the group of Aubry Miller (DKFZ) and KLK7 was obtained from the group of Judith Clements (QUT).
(§3) The manufacturer’s recommended buffers were used with uPA and tPA but not KLK8. […]
(§4) Fluorescence measurements were measured using an Envision plate reader. Fluorescence data was processed using Graphpad Prism 8. […]
(§5) 2-chlorotrityl chloride resin. […]
(§6) 380nm/440nm. The data was analysed using Graphpad Prism 8. The initial slopes of each plot were calculated and presented in a bar chart, which represents the substrate specificity of the KLK. Error bars represent the standard deviation between the three replicates.
(§7) Enzyme kinetics to calculate KM. Purified fluorogenic substrates were measured in triplicates. […]
(§8) temperature, fluorescence was read once every 30 s for 30 min from an Envision plate reader at excitation/emission wavelengths of 380nm/440nm. The data was analysed with Graphpad Prism 8, using the Michaelis-Menten model.
(§9) Enzyme kinetics to calculate kobs/I. All ABPs and inhibitors were measured in triplicates. […]
(§10) using a pseudo first order kinetics model. The observed rate of inhibition (kobs) was calculated by plotting a one-phase association. […]

KLK8 [2] = target: T2, KLK8 (Homo sapiens, UniProt O60259); experiment: Enzyme kinetics to calculate KM, KLK8; format: biochemical; conditions: fluorogenic substrate, KLK8 1 nM, 2% DMSO, room temperature, 30 min, Michaelis-Menten model, triplicates
T2 construct: Active recombinant FGFBP1 (Code 1593-FB), HSPG2 (Code 2364-ER), uPA (Code 1310-SE), tPA (Code 7449-SE) and KLK8 (Code 2025-SE) were obtained from BioTechne; purchased BioTechne 2025-SE
T2 sequence (O60259 33-260): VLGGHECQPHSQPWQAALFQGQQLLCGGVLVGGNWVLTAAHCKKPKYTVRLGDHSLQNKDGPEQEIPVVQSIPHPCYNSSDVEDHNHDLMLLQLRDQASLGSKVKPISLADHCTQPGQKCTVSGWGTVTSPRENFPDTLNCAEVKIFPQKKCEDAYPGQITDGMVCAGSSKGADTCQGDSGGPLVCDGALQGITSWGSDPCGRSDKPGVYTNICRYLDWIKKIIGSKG
Experimental: as §1, §2, §3, §4, §5, §6, §7, §8, §9, §10

KLK6 = experiment: Enzyme kinetics to calculate kobs/I, KLK6; format: biochemical, human; conditions: KLK6 1.5 nM, fluorogenic substrate 22 5 µM, 50 mM Tris 150 mM NaCl 1 mM EDTA 0.05% Tween20 pH 7.5, room temperature, read every 30 s for 30 min, ex/em 380/440 nm, pseudo first order kinetics, corrected by (1 + [S]/KM), triplicates
KLK8 [3] = target: T2, KLK8; experiment: Enzyme kinetics to calculate kobs/I, KLK8; format: biochemical; conditions: KLK8 1 nM, Boc-VPR-AMC 30 µM, 100 mM Na2PO4 0.01% Tween20 pH 8.5, room temperature, 30 min, pseudo first order kinetics, triplicates
KLK7 [4] = target: T1, KLK7; experiment: Enzyme kinetics to calculate kobs/I, KLK7; format: biochemical; conditions: KLK7 34 nM, substrate 24 5 µM, 100 mM Na2PO4 0.01% Tween20 pH 8.5, room temperature, 30 min, pseudo first order kinetics, triplicates
Experimental: as §1, §2
(§11) The manufacturer’s recommended buffers were used with uPA and tPA but not KLK8. The KLK6 assay buffer was as follows: 50 mM Tris 150 mM NaCl, 1 mM EDTA, 0.05% Tween20, pH 7.5. The KLK7/8 buffer was as follows: 100 mM Na2PO4, 0.01% Tween20, pH 8.5. Fluorescence measurements were measured using an Envision plate reader. Fluorescence data was processed using Graphpad Prism 8. […]
as §5

[5] = target: T3, urokinase plasminogen activator (uPA) (Homo sapiens, UniProt P00749); experiment: Enzyme kinetics to calculate kobs/I, uPA; format: biochemical; conditions: uPA 2 nM, Z-GGR-AMC 60 µM, manufacturer's buffer, room temperature, 30 min, pseudo first order kinetics, triplicates
T3 construct: purchased BioTechne 1310-SE
Experimental: as §1, §2, §11, §5

[6] = target: T4, tissue plasminogen activator (tPA) (Homo sapiens, UniProt P00750); experiment: Enzyme kinetics to calculate kobs/I, tPA; format: biochemical; conditions: tPA 2 nM, Z-GGR-AMC 60 µM, manufacturer's buffer, room temperature, 30 min, pseudo first order kinetics, triplicates
T4 construct: purchased BioTechne 7449-SE
T4 sequence (P00750 36-562): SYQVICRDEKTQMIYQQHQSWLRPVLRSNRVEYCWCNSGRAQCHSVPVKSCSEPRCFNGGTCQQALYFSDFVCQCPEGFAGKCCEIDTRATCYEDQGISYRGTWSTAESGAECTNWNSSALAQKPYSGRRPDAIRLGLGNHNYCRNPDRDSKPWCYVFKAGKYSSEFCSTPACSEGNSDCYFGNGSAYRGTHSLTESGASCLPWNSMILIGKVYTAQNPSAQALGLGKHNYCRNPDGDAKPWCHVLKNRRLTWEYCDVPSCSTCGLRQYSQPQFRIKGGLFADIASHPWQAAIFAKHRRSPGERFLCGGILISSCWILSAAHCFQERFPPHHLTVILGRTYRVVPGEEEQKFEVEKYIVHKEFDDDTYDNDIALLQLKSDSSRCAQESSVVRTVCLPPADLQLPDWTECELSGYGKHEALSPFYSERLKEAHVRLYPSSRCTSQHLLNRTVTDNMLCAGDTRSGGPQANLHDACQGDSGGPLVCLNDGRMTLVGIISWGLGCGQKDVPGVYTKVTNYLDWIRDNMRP
Experimental: as §1, §2, §11, §5

[7] = system: recombinant wild-type KLK6; experiment: In-gel fluorescence labelling of recombinant wild-type KLK6; format: binding, human; conditions: 1 h incubation
Excerpt: (§12) Figure 3 ABP validation. […] Pulldown lanes show enriched proteins after streptavidin binding.

KLK6[S195A] = experiment: In-gel fluorescence labelling of inactive KLK6[S195A]; format: binding, human; conditions: 1 h incubation
Excerpt: as §12

endogenous tPA and uPA = experiment: Competition labelling in Capan-2 conditioned media (NeutrAvidin-HRP blot); conditions: 2 h preincubation then bABP 17 1 h, concentrations as high as 40 μM
Excerpt: as §12

tPA = target: T5, tPA (Homo sapiens, UniProt P00750); experiment: Enzyme kinetics to calculate KM, tPA; format: biochemical; conditions: fluorogenic substrate, tPA 2 nM, 2% DMSO, room temperature, 30 min, Michaelis-Menten model, triplicates
T5 construct: purchased BioTechne 7449-SE
T5 sequence (P00750 36-562): as above
Experimental: as §1, §2, §3, §4, §5, §6, §7, §8, §9, §10

uPA = target: T6, uPA (Homo sapiens, UniProt P00749); experiment: Enzyme kinetics to calculate KM, uPA; format: biochemical; conditions: fluorogenic substrate, uPA 2 nM, 2% DMSO, room temperature, 30 min, Michaelis-Menten model, triplicates
T6 construct: purchased BioTechne 1310-SE
Experimental: Reagents were obtained from VWR, Sigma Aldrich, Sartorius, Fluorochem, AGTC, Novabiochem, TCI, Alfa Aesar, Iris Biotech, Thermofisher and Bachem. 1H and 13C NMR spectra were measured on 400 MHz Bruker AV instruments. Cells were obtained directly from the ATCC. A Waters LC-MS system (2767 sample manager, 2998 UV detector and 3100 mass detector) was used for the analysis and purification of peptides. The analytical column was an Xbridge C18 4.6 mm x 100 mm. The preparative column used to purify the peptides was an Xbridge C18 19 mm x 100 mm. For analytical LC-MS, the flow rate was 1.2 mL/min, while preparative runs were at 20 mL/min. […]
All solvents contained an additive (0.1% formic acid). High resolution mass was recorded on a Micromass Autospec Premier through the Imperial College London mass spectrometry services. […]
as §4
Peptides were prepared using standard fluorenylmethoxycarbonyl (Fmoc) solid phase peptide synthesis. Reactions were monitored using the ninhydrin test. […]
380nm/440nm. The data was analysed using Graphpad Prism 8. The initial slopes of each plot were calculated and presented in a bar chart, which represents the substrate specificity of the KLK. […]
as §7

“Ac-KHLF-{ACC} (SMILES CC(=O)N[C@@H](CCCCN)C(=O)N[C@@H](Cc1c[nH]cn1)C(=O)N[C@@H](CC(C)C)C(=O)N[C@@H](Cc1ccccc1)C(=O)Nc1ccc2c(CC(N)=O)cc(=O)oc2c1) [compound 24, purified fluorogenic substrate for KLK7]” was tested, and the Km (KLK7 [1]) was 56 µM.
Boc-Val-Pro-Arg-{AMC} was tested, and the Km (KLK8 [2]) was 290 µM.
“Cy5–DPhe–Ser(Z)–Dht–ArgPP [compound 21, Cy5-tagged KLK6 ABP]” was tested, and the “KLK6 kobs/I” value (KLK6) was 1000 M^–1 s^–1, the “KLK8 kobs/I” value (KLK8 [3]) was 40 M^–1 s^–1 and the “KLK7 kobs/I” value (KLK7 [4]) was 26 M⁻¹ s⁻¹. The “uPA kobs/I” value [5] was 0 M⁻¹ s⁻¹, the “tPA kobs/I” value [6] was 8 M⁻¹ s⁻¹ and the “labeling of active recombinant KLK6” value [7] was “dose-dependent labeling”. The “labeling of inactive KLK6[S195A] mutant” value (KLK6[S195A]) was “not labeled”.
In the case of Yn–DPhe–Ser(Z)–Dht–ArgPP [compound 19], the “KLK6 kobs/I” value (KLK6) is reported as 3000 M^–1 s^–1 and the “engagement of endogenous tPA and uPA” value (endogenous tPA and uPA) is reported as “does not substantively engage”.
Z-GGR-AMC was tested, and the Km (tPA) was 1200 µM and the Km (uPA) was 190 µM.
